pIC50: −log10 of the molar value. Calls of active or inactive are those of the source. The calls are words filed in the database; no cut-off is given here.
How the values were obtained:
[1] = Cytotoxicity against Homo sapiens (human) H460 cells assessed as inhibition of cell survival after 96 hr by MTT assay; assay type: functional, cell-based, NCI-H460; settings: for IC50: nci-h460; for pIC50: Homo sapiens, NCI-H460, 96 h, read-out: IC50
[2] = Antioxidant activity measured after 3 min by ferric thiocyanate method; assay type: functional
MES-SA = assay: Cytotoxicity against Homo sapiens (human) MES-SA cells assessed as inhibition of cell survival after 96 hr by MTT assay; assay type: functional, cell-based; settings: for IC50: mes-sa; for pIC50: Homo sapiens, MES-SA, 96 h, read-out: IC50
DU-145 = assay: Cytotoxicity against Homo sapiens (human) DU145 cells assessed as inhibition of cell survival after 96 hr by MTT assay; assay type: functional, cell-based; settings: for IC50: du-145; for pIC50: Homo sapiens, DU-145, 96 h, read-out: IC50
MCF7 = assay: Cytotoxicity against Homo sapiens (human) MCF7 cells assessed as inhibition of cell survival after 96 hr by MTT assay; assay type: functional, cell-based; settings: for IC50: mcf7; for pIC50: Homo sapiens, MCF7, 96 h, read-out: IC50
[3] = Cytotoxicity against Homo sapiens (human) MES-SA/Dx5 cells assessed as inhibition of cell survival after 96 hr by MTT assay; assay type: functional, cell-based; settings: for IC50: mes-sa/dx5; for pIC50: Homo sapiens, MES-SA/Dx5, 96 h, read-out: IC50
[4] = Antioxidant activity measured after 10 min by thiobarbituric acid method; assay type: functional

Compound | IC50 [1] | Activity [2] | IC50 (MES-SA) | IC50 (DU-145) | IC50 (MCF7) | IC50 [3] | pIC50 [1] | pIC50 (MES-SA) | pIC50 (DU-145) | pIC50 (MCF7) | Activity [4] | pIC50 [3]
O=C1c2ccccc2C(=O)c2cc(Br)c(O)cc21 | Not Active | inactive | Not Active | Not Active | Not Active | Not Active | – | – | – | – | – | –
COc1ccc(C)c2c1C(=O)c1ccccc1C2=O | – | inactive | – | – | – | Not Active | 4.27 | 4.72 | 4.32 | 4.26 | – | –
O=C1c2ccccc2C(=O)c2cc(O)ccc21 [2-HYDROXYANTHRAQUINONE] | – | inactive | Not Active | – | – | Not Active | 4.18 | – | 4.14 | 4.16 | – | –
COc1c(C=O)c(O)cc2c1C(=O)c1ccccc1C2=O [DAMNACANTHAL] | – | Active | Not Active | – | – | Not Active | 4.60 | – | 4.59 | 4.96 | Active | –
COc1ccc2c(c1)C(=O)c1ccccc1C2=O [2-METHOXYANTHRAQUINONE] | – | inactive | Not Active | – | – | Not Active | 4.17 | – | 4.15 | 4.17 | – | –
O=C1c2ccccc2C(=O)c2c(Br)ccc(O)c21 | – | inactive | – | – | – | – | 4.70 | 4.85 | 4.57 | 4.44 | – | 4.70
COc1ccc(O)c2c1C(=O)c1ccccc1C2=O | – | inactive | Not Active | – | – | Not Active | 4.09 | – | 4.13 | 4.10 | – | –
VITAMIN E | – | Active | – | – | – | – | – | – | – | – | – | –
Cc1cc(C(C)(C)C)c(O)c(C(C)(C)C)c1 | – | Active | – | – | – | – | – | – | – | – | – | –
Cc1c(O)cc2c(c1O)C(=O)c1ccccc1C2=O [Rubiadin] | – | inactive | – | – | – | – | 4.38 | 4.42 | 4.49 | 4.25 | – | 4.46
CC(=O)Oc1cc2c(c(O)c1C)C(=O)c1ccccc1C2=O | – | inactive | Not Active | – | – | Not Active | 4.17 | – | 4.43 | 4.25 | – | –
Cc1ccc(O)c2c1C(=O)c1ccccc1C2=O | Not Active | inactive | Not Active | Not Active | Not Active | Not Active | – | – | – | – | – | –
O=C1c2ccccc2C(=O)c2c(O)ccc(O)c21 [QUINIZARIN] | Not Active | inactive | Not Active | Not Active | Not Active | Not Active | – | – | – | – | – | –
CCOCc1c(OC)cc2c(c1OC)C(=O)c1ccccc1C2=O | Not Active | inactive | Not Active | Not Active | Not Active | Not Active | – | – | – | – | – | –
COc1cc2c(c(OC)c1C(Br)Br)C(=O)c1ccccc1C2=O | – | inactive | – | – | – | – | 4.64 | 5.00 | 4.55 | 4.57 | – | 5.15
COc1cc2c(c(OC)c1CBr)C(=O)c1ccccc1C2=O | – | inactive | – | – | – | – | 5.30 | 5.70 | 5.40 | 5.10 | – | 5.70

Compound | IC50 [1] | Activity [2] | IC50 (MES-SA) | IC50 (DU-145) | IC50 (MCF7) | IC50 [3] | pIC50 [1] | pIC50 (MES-SA) | pIC50 (DU-145) | pIC50 (MCF7) | Activity [4] | pIC50 [3]
O=C1c2ccccc2C(=O)c2c(O)cc(O)cc21 [XANTHOPURPURIN] | – | inactive | – | – | – | – | 4.64 | 4.52 | 4.54 | 4.26 | – | 4.68
O=C1c2ccccc2C(=O)c2c(O)cc(Br)cc21 | Not Active | inactive | Not Active | Not Active | Not Active | Not Active | – | – | – | – | – | –
COc1cc2c(c(OC)c1C)C(=O)c1ccccc1C2=O | Not Active | inactive | Not Active | Not Active | Not Active | Not Active | – | – | – | – | – | –
Cc1c(O)c(Br)c2c(c1O)C(=O)c1ccccc1C2=O | – | inactive | – | – | – | – | 4.72 | 4.70 | 4.51 | 4.55 | – | 4.52
COc1c(C)c(OC(C)=O)cc2c1C(=O)c1ccccc1C2=O | Not Active | inactive | Not Active | – | – | Not Active | – | – | 4.57 | 4.59 | – | –
COc1c(C=O)c(O)c(Br)c2c1C(=O)c1ccccc1C2=O | – | inactive | Not Active | – | – | Not Active | 4.49 | – | 4.47 | 4.72 | – | –
CCOCc1c(OC(C)=O)cc2c(c1OC)C(=O)c1ccccc1C2=O | Not Active | inactive | Not Active | – | – | Not Active | – | – | 4.64 | 4.52 | – | –
O=C1c2ccccc2C(=O)c2c1ccc(O)c2O | – | Active | – | – | – | – | – | – | – | – | Active | –
CCOCc1c(O)cc2c(c1OC)C(=O)c1ccccc1C2=O | Not Active | inactive | Not Active | – | – | Not Active | – | – | 4.30 | 4.46 | – | –
O=C1c2ccccc2C(=O)c2c(Br)cc(O)cc21 | – | inactive | – | – | – | – | 4.37 | 4.25 | 4.36 | 4.57 | – | 4.54
COc1c(CBr)c(OC(C)=O)cc2c1C(=O)c1ccccc1C2=O | – | inactive | Not Active | – | – | Not Active | 4.59 | – | 5.30 | 5.22 | – | –
O=Cc1c(O)cc2c(c1O)C(=O)c1ccccc1C2=O | – | Active | – | – | – | Not Active | 4.40 | 4.74 | 4.38 | 4.44 | Active | –
COc1ccc(OC)c2c1C(=O)c1ccccc1C2=O [1,4-DIMETHOXYANTHRAQUINONE] | – | inactive | Not Active | – | – | Not Active | 4.15 | – | 4.16 | 4.15 | – | –
COc1cc2c(c(O)c1CBr)C(=O)c1ccccc1C2=O | – | inactive | – | – | – | Not Active | 4.52 | 5.40 | 4.59 | 4.47 | – | –
O=C1c2ccccc2C(=O)c2c(O)cccc21 [1-HYDROXYANTHRAQUINONE] | Not Active | inactive | Not Active | Not Active | Not Active | Not Active | – | – | – | – | – | –
COc1cc2c(c(OC)c1C=O)C(=O)c1ccccc1C2=O | – | inactive | – | – | – | Not Active | 4.19 | 5.30 | 4.49 | 4.26 | – | –
